{"source": "patent US20250082708A1", "about": "“HERBAL COMPOSITION FOR USE IN THE TREATMENT OR PREVENTION OF POSTPARTUM DEPRESSION” (CRISTALFARMA S.R.L., priority 2022, published 2025)", "origin": "cited, not measured here", "tested_on": "women with postpartum depression", "conditions": "8 weeks treatment; Amini et al."}
{"substance": "vitamin D", "values": [{"measurement": "reduction of EPDS questionnaire score with respect to baseline, versus placebo control group", "result": "greater reduction"}]}
